Laboratory results taken from patent US10478421B1, “Sortilin binding compounds, formulations, and uses thereof” (University of Florida, priority 2016, dated 2019).
Several values for one entry are separate records, joined by “and”; a condition that tells them apart may be missing. Equal entries are not always repeated.

Tests used:
McA cells = assay: VLDL-B100 secretion by McA cells (immuno slot blotting); type: cell-based, rat; conditions: for effect on VLDL-B100 secretion: increasing concentrations; for increase in VLDL-B100 secretion over the no cpd984 control: 18 h, 1% BSA/DMEM, insulin sensitive McA cells
Description: McArdle RH-7777 cells (McA cells) were cultured as previously described in serum containing complete Dulbecco's Modified Eagle's Medium (cDMEM). To induce insulin sensitivity, McA cells at 50-60% confluency were incubated for 18 h in serum-free media containing DMEM containing 1% (w/v) BSA (1% BSA/DMEM). Human sortilin (hsortilin) (Ser78-Asn755) with C-terminal 6-His tag was from R&D Systems, Inc., (Minneapolis, Minn.). Plasma from fasted Sprague Dawley rats (BioreclamationIVT, Westbury, N.Y.) was used to prepare VLDL apo B standards. Mouse monoclonal antibody to rat B100 was prepared in our laboratory and characterized previously. Rabbit anti-sortilin antibody was from GeneTex (GTX54854, Irvine, Calif.) or from Abcam (ab16640, Cambridge, Mass.). Rabbit anti-p-AKT (9271), rabbit anti-AKT (9272), and rabbit anti-insulin receptor β-subunit (IRβ, 3025) were from Cell Signaling Technology (Danvers, Mass.). Mouse anti-pY Platinum 4G10 was from EMD Millipore (Temecula, Calif.). (Horseradish peroxidase linked donkey anti-rabbit IgG (NA9340), sheep anti-mouse IgG (NXA931) and ECL Prime Western Blotting Detection Reagent (RPN2232) were from GE Healthcare (Buckinghamshire, UK). All other materials and reagents were essentially as described previously. Compound 98,477,898 (25)-1-methyl-N-{3-[(3-phenylpropanoyl)-amino]phenyl}pyrrolidine-2-carboxamide (cpd984) was obtained from ChemBridge Corp. (San Diego, Calif.). A stock solution of cpd984 (10 mM) was prepared in DMSO, and stored in aliquots at −20° C.
Experimental media were adjusted to 1% (v/v) protease inhibitor cocktail I (EMD Millipore) and to a salt density of 1.019 g/ml by addition of a solution of NaBr (d=1.495 g/ml). VLDL was isolated by ultracentrifugation in a L-70 Ultracentrifuge (Beckman Coulter, Inc., Fullterton, Calif.) using a 50Ti rotor (200,000×g, 18 h, 14° C.). Following centrifugation, the top 1.5-2.0 ml VLDL fraction was removed using a syringe and weighed to determine volume. VLDL samples were applied in triplicate wells (0.2-0.4 ml per well) in a Bio-Dot® SF apparatus (Bio-Rad). Two PVDF membranes were used together for blotting: the top was Immobilon-P (IPVH09120 SF) and the bottom was Immobilin-PSQ (ISEQ09120 SF); both were obtained from EMD Millipore. VLDL apo B standards were prepared from rat plasma VLDL and total apo B (B100 and B48) and B100 content were determined on stained gels following SDS-PAGE separation. VLDL-apo B standards in TBS were slotted in duplicate alongside test samples. After filtration, 0.4 ml of TBS was added as a wash. […] At this stage slot blots were evaluated similarly to immunoblotting. After chemiluminescence development and B100 quantitation, slot blots were stripped by incubation in Restore™ PLUS for 15 min at room temperature (Thermo Scientific, Rockford, Ill.) and were reblocked overnight at 4° C. Total apo B (B100 and B48) present in VLDL was then evaluated following incubation with rabbit polyclonal anti-rat apo B. The bottom PVDF membrane was carried through the entire procedure to assure there was no “bleed through” of test samples. VLDL-apo B and VLDL-B100 content were calculated from standard curves generated by VLDL apo B standards. […]
McArdle rat hepatocytes were incubated with increasing concentrations of cpd984 or cpd541 for 14-18 h and media were collected. […] Binding was detected by chemiluminescence detection and quantified using Bio-Rad software. […]

McArdle rat hepatocytes = assay: VLDL-apo E secretion by McArdle rat hepatocytes (slot blotting); type: cell-based; conditions: 0.1-25 μM, 14-18 h
Description: McArdle rat hepatocytes were incubated with five media concentrations 0 (no cpd), 1 (0.1 μM), 2 (1 μM), 3 (10 μM) and 4 (25 μM) of cpd984 (FIG. 7A), cpd541 (FIG. 7B), or with a combination of both compounds (FIG. 7C) at indicated concentrations. Hepatocytes were incubated overnight (14-18 h) and media were collected and VLDL-B100 and VLDL-apo E were detected by slot blotting as described above. An anti-rat apoE antibody was used for measurement of VLDL-apo E secretion. Results are the average of triplicate analysis in one study.

hsortilin = biological target: T1, hsortilin (Homo sapiens, UniProt Q99523); assay: Surface plasmon resonance of NT and cpd984 on immobilized hsortilin (Ni-NTA chip, Example 1); type: binding
T1 construct: Human sortilin (hsortilin) (Ser78-Asn755) with C-terminal 6-His tag; purchased R&D Systems, Inc. (Minneapolis, Minn.)
T1 sequence (Q99523 78-755): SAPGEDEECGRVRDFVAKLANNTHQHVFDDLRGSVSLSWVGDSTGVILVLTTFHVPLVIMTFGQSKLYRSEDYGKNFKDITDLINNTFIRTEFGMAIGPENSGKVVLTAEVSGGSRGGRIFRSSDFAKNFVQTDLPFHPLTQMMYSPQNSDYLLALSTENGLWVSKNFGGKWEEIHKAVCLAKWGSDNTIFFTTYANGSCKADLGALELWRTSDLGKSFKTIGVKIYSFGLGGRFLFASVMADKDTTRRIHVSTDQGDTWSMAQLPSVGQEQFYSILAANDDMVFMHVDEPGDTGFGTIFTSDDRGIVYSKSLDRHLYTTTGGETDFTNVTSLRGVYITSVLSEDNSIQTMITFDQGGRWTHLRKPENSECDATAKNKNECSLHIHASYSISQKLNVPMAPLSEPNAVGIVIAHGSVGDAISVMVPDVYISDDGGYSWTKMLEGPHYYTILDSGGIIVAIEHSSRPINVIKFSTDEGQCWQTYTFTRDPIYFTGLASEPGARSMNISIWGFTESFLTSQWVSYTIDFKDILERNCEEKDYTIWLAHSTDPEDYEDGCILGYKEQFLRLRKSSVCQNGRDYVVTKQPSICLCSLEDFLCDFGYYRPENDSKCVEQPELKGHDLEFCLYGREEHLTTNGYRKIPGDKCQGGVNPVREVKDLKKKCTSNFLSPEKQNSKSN
Description: Surface plasmon resonance measurements were performed on a Biacore T200 instrument equipped with Ni-NTA sensor chips with ˜6800 response units (RU) for hsortilin covalently immobilized to the surface. HBS-DMSO running buffer (10 mM Hepes pH 7.4, 150 mM NaCl, 1% DMSO) was used at a flow rate of 30 μl/min and injections performed with times for association of 90 s, and dissociation of 300 s, followed by injection of buffer to regenerate the hsortilin surface. Binding was expressed in relative RU; the difference in response between the immobilized protein flow cell and the corresponding control flow cell.

SMILES | effect on VLDL-B100 secretion (McA cells; 14-18 h) | effect on VLDL-apoE secretion (McArdle rat hepatocytes) | SPR binding response (hsortilin; 100 nM NT injected with 500 μM cpd984) | averaged RU of NT co-injected with 984 (hsortilin; 100 nM NT with 500 μM cpd984, average) | increase in binding to hsortilin for co-injected NT over the combination of NT and cpd984 alone (hsortilin; 100 nM NT, 500 μM cpd984) | SPR binding response (hsortilin; 500 μM cpd984 alone) | RU of 500 μM cpd984 and 100 nM NT (sum of separate injections) (hsortilin; sum of averaged responses injected alone) | increase in VLDL-B100 secretion over the no cpd984 control (McA cells; 10 μM) | increase in VLDL-B100 secretion over the no cpd984 control (McA cells; 25 μM) | effect of 984 on VLDL-B100 and VLDL-apoE secretion when given in combination with 541 (McA cells; combination of both compounds, 0.1-25 μM, 14-18 h)
CC(NC(=O)c1ccccc1NCC(=O)O)c1ccccc1 (stereo not drawn) [cpd541] | decreases VLDL-B100 secretion | decreases | – | – | – | – | – | – | – | –
CN1CCC[C@H]1C(=O)Nc1cccc(NC(=O)CCc2ccccc2)c1 [cpd984, (2S)-1-methyl-N-{3-[(3-phenylpropanoyl)-amino]phenyl} pyrrolidine-2-carboxamide] | increases VLDL-B100 secretion | increases | 64.1 RU and 64.7 RU | 64.4 RU | 14.5 RU | 45.1 RU and 44.8 RU | 50.0 RU | 30% | 61% | abrogated
